We go through 3 molecules from patent US4732977A, “Carbapenem antibiotics” (priority 1986, dated 1988).

In data set [1] the test system is S. faecalis A20688. The data set can be described thus: M.I.C., tube dilution. Type of data set: cell-based. The conditions noted are these: Nutrient Broth.
Data set [2] deals with P. vulgaris A21559. The data set can be described thus: M.I.C., tube dilution. The settings on record: Nutrient Broth. Format: cell-based.
For data set [3], the system named is E. coli A20341-1. The data set can be described thus: M.I.C., tube dilution. Format: cell-based. The settings on record: Nutrient Broth.
The test system of data set [4] is E. coli A15119. The data set can be described thus: M.I.C., tube dilution. Type of data set: cell-based. The settings on record: overnight incubation at 37° C., Nutrient Broth.
For data set [5], the system named is E. cloacae A-9656. The data set can be described thus: M.I.C., tube dilution. Format: cell-based. The conditions noted are these: Nutrient Broth.
The test system of data set [6] is S. aureus A-9537. The data set can be described thus: M.I.C., tube dilution. Format: cell-based.
Data set [7] deals with P. morganii A15153. The data set can be described thus: M.I.C., tube dilution. The settings on record: overnight incubation at 37° C. Type of data set: cell-based.
Data set [8] is described as follows: Blood levels in mice after intramuscular administration.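 For all read-outs here: compounds dissolved in 0.1 M phosphate buffer at pH 7, data from one experiment using four mice for each compound.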 The conditions noted are these: for AUC / Cmax / half-life: 20 mg/kg.
Source text: Compounds were solubilized in 0.1 M phosphate buffer pH 7.
a single test; 4 mice used per compound.
Compounds were solubilized in 0.1 M phosphate buffer, pH 7.
on a single test; 4 mice per compound.
Data set [9] has as its system P. aeruginosa A21213. Briefly: M.I.C., tube dilution. Format: cell-based. The settings on record: Nutrient Broth.
The test system of data set [10] is K. pneumoniae A20468. Briefly: M.I.C., tube dilution. Format: cell-based. The settings on record: Nutrient Broth.
Data set [11] relates to E. cloacae A-9659. Briefly: M.I.C., tube dilution. The conditions noted are these: overnight incubation at 37° C., Nutrient Broth. Format: cell-based.
The subject of data set [12] is P. rettgeri A22424. The data set can be described thus: M.I.C., tube dilution. Type of data set: cell-based. The settings on record: overnight incubation at 37° C., Nutrient Broth.
The subject of data set [13] is S. aureus A-9606 (Pen-res.). The data set can be described thus: M.I.C., tube dilution. The conditions noted are these: overnight incubation at 37° C. Format: cell-based.
The subject of data set [14] is K. pneumoniae A9664. Briefly: Protective effect in intramuscular treatment of infected mice. Type of data set: in vivo. The conditions noted are these: Klebsiella pneumoniae, im, K. pneumoniae A9664, read-out: PD50/treatment.
Source text: (§1) The PD50 (dose in mg/kg) required to give protection to 50% of the infected mice is indicated.
Data set [15] concerns P. aeruginosa A-9843a. Briefly: animal or person. Type of data set: in vivo, mice.
Procedure: (§2) The PD50 (dose in mg/kg required to give protection to 50% of the infected mice) is indicated.
with drugs 0 and 2 hours postinfection.
as §1
In data set [16] the test system is P. aeruginosa A24081. Briefly: Protective effect in intramuscular treatment of infected mice. Format: in vivo. The settings on record: Pseudomonas aeruginosa, im; mice, i.m.; P. aeruginosa A24081; read-out: PD50/treatment.
Source text: as §1
The test system of data set [17] is B. fragilis A22862. Briefly: M.I.C., tube dilution. Format: cell-based. The conditions noted are these: Bacteroides fragilis, overnight incubation at 37° C., Nutrient Broth.
Data set [18] deals with P. mirabilis A-9900. Briefly: Protective effect in intramuscular treatment of infected mice. The conditions noted are these: Proteus mirabilis, im; mice, i.m.; P. mirabilis A9900; read-out: PD50/treatment. Format: in vivo.
Procedure: as §2
with drugs 0 and 2 hours postinfection.
as §1
For data set [19], the system named is S. aureus A-9606. The data set is described as above. The conditions noted are these: Staphylococcus aureus, A9606, im, read-out: PD50/treatment. Type of data set: in vivo.
Procedure: as §2
with drugs 0 and 2 hours postinfection.
as §1
The subject of data set [20] is E. coli A-15119. The data set is described as above. Type of data set: in vivo. The conditions noted are these: Escherichia coli, A15119, im, read-out: PD50/treatment.
Procedure: as §2
with drugs 0 and 2 hours postinfection.
as §1
Data set [21] has as its system S. aureus A15097 (Meth-res.). Briefly: M.I.C., tube dilution. Format: cell-based. The settings on record: Staphylococcus aureus, overnight incubation at 37° C.
Data set [22] has as its system S. pneumoniae A-9585. The data set can be described thus: M.I.C., tube dilution. Format: cell-based. The settings on record: overnight incubation at 37° C., Nutrient Broth.
Data set [23] deals with S. pyogenes A-9604. Briefly: M.I.C., tube dilution. Type of data set: cell-based. The settings on record: overnight incubation at 37° C., Nutrient Broth; listed as Ex. 15 "B".
For data set [24], the system named is P. aeruginosa A-9843A. Briefly: M.I.C., tube dilution. Format: cell-based. The settings on record: overnight incubation at 37° C., Nutrient Broth; listed as Ex. 15 "B".
Data set [25] deals with S. marcescens A20019. Briefly: M.I.C., tube dilution. Format: cell-based. The settings on record: overnight incubation at 37° C., Nutrient Broth; listed as Ex. 15 "B".
Data set [26] deals with P. mirabilis A-9900. Briefly: M.I.C., tube dilution. Type of data set: cell-based. The conditions noted are these: overnight incubation at 37° C., Nutrient Broth.
In data set [27] the test system is K. pneumoniae A-9664. The data set can be described thus: M.I.C., tube dilution. The conditions noted are these: overnight incubation at 37° C., Nutrient Broth. Type of data set: cell-based.
[28] abbreviates: Proteus vulgaris, A21559, overnight incubation at 37° C., read-out: MIC.
The mark [29] stands for this setting: overnight incubation at 37° C., listed as Ex. 15 "B".

A word on the MIC: it is the least concentration at which growth counts as inhibited. In general, AUC refers to concentration integrated over time. Low values mean low exposure, high ones high exposure. In general, Cmax refers to the highest concentration seen after dosing. What is called half-life is how long it takes for the measured level to halve. A low value points to fast loss.

In brackets after ≈: the same amount, converted by molar mass. Read-outs that look alike come from different tables or passages of the source.

Turning to `C[C@@H](O)[C@H]1C(=O)N2C(C(=O)[O-])=C(SCc3cn(C)n[n+]3CC(=O)O)C[C@H]12` [Example 17, Potassium 3-[5-(1-carboxylatomethyl-3-methyl-1,2,3-triazolium)-methanethio]-6α-[1-(R)-hydroxyethyl]-7-oxo-1-azabicyclo[3.2.0]hept-2-ene-2-carboxylate], the MIC in data set [1] (Enterococcus faecalis, A20688, overnight incubation at 37° C., read-out: MIC) was found to be 4 µg/mL; in [2] (setting [28]), 0.13 µg/mL; in [3] (Escherichia coli, A203411, overnight incubation at 37° C., read-out: MIC) it was 0.6 µg/mL; in [4] (Escherichia coli, A15119, read-out: MIC) it was 0.6 µg/mL; in data set [5] (Enterobacter cloacae, A9656, overnight incubation at 37° C., read-out: MIC) it was 2 µg/mL; in [6] (Staphylococcus aureus, A9537, +50% serum, read-out: MIC), 1 µg/mL. Moreover, the MIC in data set [7] (Morganella morganii, A15153, printed M. morganii A15153, read-out: MIC) came to 0.5 µg/mL; in data set [9] (Pseudomonas aeruginosa, A21213, overnight incubation at 37° C., read-out: MIC) it was 16 µg/mL; in data set [10] (Klebsiella pneumoniae, A20468, overnight incubation at 37° C., read-out: MIC), 0.5 µg/mL; in data set [11] (Enterobacter cloacae, A9659, read-out: MIC), 2 µg/mL; in data set [12] (Providencia rettgeri, A22424, read-out: MIC), 2 µg/mL; in data set [13] (Staphylococcus aureus) it was 0.5 µg/mL. In data set [8] (mouse, blood, im), this molecule returned an exposure (AUC) of 3400 ng·h/mL. This molecule registered a Cmax in data set [8] (mouse, blood, im) of 11000 ng/mL. This molecule also yielded a half-life in data set [8] (mouse, blood, im) of 8 min.

With `Cc1ccc[n+](C)c1CSC1=C(C(=O)[O-])N2C(=O)[C@H]([C@@H](C)O)[C@H]2C1` [Example 7, 3-(N-Methyl-3-methylpyridine-2-methanethio)-6α-[1-(R)-hydroxyethyl]-7-oxo-1-azabicyclo(3.2.0)hept-2-ene-2-carboxylate], the MIC in [2] (setting [28]) was determined as 0.008 µg/mL (≈ 0.023 µM); in data set [17], 0.016 µg/mL (≈ 0.0459 µM); in data set [21], 2 µg/mL (≈ 5.74 µM). Besides, the ED50 in [14] worked out at 1 mg/kg; in data set [15] (Pseudomonas aeruginosa, A9843A, in Mus musculus, im, read-out: PD50/treatment), 0.2 mg/kg; in [16], 0.1 mg/kg; in data set [18] it was 2.4 mg/kg; in data set [19], 0.2 mg/kg; in data set [20] it was 0.2 mg/kg. The AUC in [8] (mouse, blood, im) amounted to 11800 ng·h/mL. This molecule also came in with a Cmax in data set [8] (mouse, blood, im) of 19200 ng/mL. This molecule also came in with a half-life in data set [8] (mouse, blood, im) of 11 min.

`C[C@@H](O)C1C(=O)N2C(C(=O)[O-])=C(SCc3cn(C)n[n+]3C)CC12` (stereo partly drawn) [Example 15 "B", 3-[4-(N,N-dimethyl-1,2,3-triazolium)methylthio]-6α-[1-(R)-hydroxyethyl]-7-oxo-1-azabicyclo(3.2.0)hept-2-ene-2-carboxylate]: the MIC in data set [1] (overnight incubation at 37° C.) stood at 0.5 µg/mL (≈ 1.48 µM); in data set [22] it was 0.0005 µg/mL (≈ 0.00148 µM); in data set [2] (setting [29]) it was 0.008 µg/mL (≈ 0.0236 µM); in data set [3] (setting [29]), 0.008 µg/mL (≈ 0.0236 µM); in [23], 0.001 µg/mL (≈ 0.00296 µM); in data set [4] (listed as Ex. 15 "B"), 0.008 µg/mL (≈ 0.0236 µM). For the same molecule, the MIC in [5] (overnight incubation at 37° C.) came to 0.03 µg/mL (≈ 0.0887 µM); in [6] (+50% serum, listed as Ex. 15 "B"), 0.016 µg/mL (≈ 0.0473 µM); in [6] (overnight incubation at 37° C., Nutrient Broth, listed as Ex. 15 "B"), 0.004 µg/mL (≈ 0.0118 µM); in data set [7] (printed M. morganii A15153, listed as Ex. 15 "B"), 0.06 µg/mL (≈ 0.177 µM); in [24], 2 µg/mL (≈ 5.91 µM); in [25], 0.016 µg/mL (≈ 0.0473 µM). Further, the MIC in data set [9] (setting [29]) stood at 0.13 µg/mL (≈ 0.384 µM); in data set [10] (setting [29]), 0.016 µg/mL (≈ 0.0473 µM); in [26], 0.03 µg/mL (≈ 0.0887 µM); in data set [27] it was 0.03 µg/mL (≈ 0.0887 µM); in data set [11] (listed as Ex. 15 "B"), 0.016 µg/mL (≈ 0.0473 µM); in data set [12] (listed as Ex. 15 "B"), 0.13 µg/mL (≈ 0.384 µM). The MIC in data set [13] (listed as Ex. 15 "B") is 0.008 µg/mL (≈ 0.0236 µM). In data set [8] (mice, 20 mg/kg i.m. (table 9)), this molecule had a T1/2 of 10 min. Besides, the AUC in data set [8] (mice, 20 mg/kg i.m. (table 9)) is 7400 ng·h/mL. Moreover, the Cmax in data set [8] (mice, 20 mg/kg i.m. (table 9)) came out at 15900 ng/mL. For the same molecule, in data set [15] (mice, i.m., P. aeruginosa A9843A), the PD50/treatment is recorded as 0.89 mg/kg.
